Data: patent publication US20230165970A1, “COMPOSITIONS AND METHODS FOR THE TREATMENT OF BACTERIAL INFECTIONS” (priority 2017, published 2023)
Values after ≈ are worked out from the molar mass of the structure shown. Read-outs that look alike come from different tables or passages of the source. *1 amine or outer side, *2 acyl side, *3 side chain or, on linkers, in order; H or OH if unused. Where a SMILES comes first, the peptide text is derived from it. Bridges are numbered along the chain shown (N, C = ends). Roman numbers before positions name the chains, in order. [ ]: non-standard residue; d: D form. The star is where a group is joined. ξ: configuration not given here. X9 = C#CCOCCOCCOCCOCCC(=O)N1C[C@@H](C(=O)[*:1])[C@H](C(=O)[*:2])C1; X4 = C#CCOCCOCCOCCOCCNC(=O)CN(CC(=O)[*:1])CC(=O)[*:2]; Propargyl(OCH2CH2)4CO = C#CCOCCOCCOCCOCCC(=O)*; X3 = CCCCC[C@@H](O)[C@H](N[*:1])C(=O)[*:2]; Nle = CCCC[C@H](N)C(=O)O; ξF = NC(Cc1ccccc1)C(=O)O; Dab = NCC[C@H](N)C(=O)O; ξT = CC(O)C(N)C(=O)O; azaGly = NNC(=O)O

Columns and labels:
[1] = system: LPS from E. coli O111:B4; experiment: LPS binding/neutralization by Limulus Amebocyte Lysate (LAL) assay; assay type: biochemical; settings: LPS 1-10,000 ng/mL, test article 0.25-10 μM; sum of AUCs relative to maximal AUC (Table 14)
Method: The LAL assay (Charles River) was used to determine the binding affinity of test articles to LPS.
(§1) For the assay, 25 μL purified LPS from E. coli O111:1B4 (Sigma) at doses ranging from 1-10,000 ng/mL were incubated with 25 μL of test article at concentrations ranging from 0.25-10 NM. After 5 min incubation at 37° C., 50 μL of LAL reagent, which reacts with lipid A portion from LPS, was added to corresponding wells. After 15 min, absorbance at 405 nm was read on EnSpire plate reader (Perkin Elmer). The % LPS neutralization is calculated relative to a PBS control (background) and LPS control at each concentration (positive control).
LPS neutralization=(1−(absorbance test article−PBS with LAL reagent)/(absorbance no test article−PBS with LAL reagent))×100
To obtain a single value of LPS neutralization for each test article, the area under the curve (AUC) for dose-response of test articles from […] for each LPS concentration was calculated using Prism 7 software. The % LPS neutralization is the sum of the AUCs for each LPS concentration determined relative to the maximal AUC achievable×100.
as §1, with “O111:B4” for “O111:1B4”, “μM.” for “NM.”

[2] = system: Ab AB5075; assay type: cell-based, Acinetobacter baumannii
Method: (§2) Briefly, stock solutions of all antibacterial agents were prepared fresh in appropriate solvents (i.e. PBS, pH 7.4, DMSO, DI, etc.). Stock concentrations for drug conjugates were made at 12.5× the highest final assay concentration. All were serially diluted 2-fold, 8 or 12 times in a 96-well PCR plate (VWR cat. no. 83007-374). Bacterial cell suspensions generated from Mueller-Hinton agar (MHA) plate cultures were prepared in 0.85% saline and adjusted to ˜0.1 OD600 nm. […] For the conjugates, 92 μL of each cell suspension in RPMI B were added in the same 96-well plate assay format. […] Compounds were tested against a 14-strain panel comprised of E. coli (Ec), A. baumannii (Ab), P. aeruginosa (Pa), and K. pneumoniae (Kp) that were obtained from ATCC (Ec 25922, Ec 2489, Ab 19606, Pa 27853, Pa PAO1, Kp 43816, Kp 10031), Centers for Disease Control and Prevention (Ec AR0349), BEI Resources (Ab AB5075), Micromyx LLC (Ab 8990, Kp 6951), and Belgian Coordinated Collections of Microorganisms (Pa LES431) or generated in-house (Ec 25922 64X-1). […] E. coli strain ATCC 25922 and P. aeruginosa strain LES431 were run in the presence and absence of 50% heat-inactivated fetal bovine serum (FBS; Sigma, cat. no. F4135-100 mL). Plates were mixed by shaking then incubated at 35° C. overnight (16-20 h).

[3] = system: Ab 8990 (COL^R); assay type: cell-based, Acinetobacter baumannii
Method: as §2

[4] = system: Ec 25922; assay type: cell-based, Escherichia coli
Method: as §2

[5] = system: Ec 2469; assay type: cell-based, Escherichia coli
Method: as §2

[6] = system: Ec 25922 64X-1 (COL^R); assay type: cell-based, Escherichia coli; settings: media CA-MHB
Method: (§3) Briefly, stock solutions of all antibacterial agents were prepared fresh in appropriate solvents (i.e. PBS, pH 7.4, DMSO, DI, etc.). Stock concentrations for drug conjugates were made at 12.5× the highest final assay concentration. All were serially diluted 2-fold, 8 or 12 times in a 96-well PCR plate (VWR cat. no. 83007-374). Bacterial cell suspensions generated from Mueller-Hinton agar (MHA) plate cultures were prepared in 0.85% saline and adjusted to ˜0.1 OD600 nm. Next, cell suspensions were diluted 1:200 in RPMI containing 5% Luria Broth (LB) to improve bacterial growth (BD Difco, cat. no. 244620) to a concentration of ˜5×10^5 CFU (colony-forming units)/mL. Due to poor solubility in Mueller-Hinton broth media, drug conjugates were evaluated in RPMI 1640 medium (+) L-glutamine, (+) sodium bicarbonate, pH 7.4 (“RPMI B”; Gibco, cat. no. 11875-085) as has been described as a more physiologically-relevant media for susceptibility testing of antibacterial compounds (1). For the conjugates, 92 μL of each cell suspension in RPMI B were added in the same 96-well plate assay format. […] Compounds were tested against a 14-strain panel comprised of E. coli (Ec), A. baumannii (Ab), P. aeruginosa (Pa), and K. pneumoniae (Kp) that were obtained from ATCC (Ec 25922, Ec 2489, Ab 19606, Pa 27853, Pa PAO1, Kp 43816, Kp 10031), Centers for Disease Control and Prevention (Ec AR0349), BEI Resources (Ab AB5075), Micromyx LLC (Ab 8990, Kp 6951), and Belgian Coordinated Collections of Microorganisms (Pa LES431) or generated in-house (Ec 25922 64X-1). […] E. coli strain ATCC 25922 and P. aeruginosa strain LES431 were run in the presence and absence of 50% heat-inactivated fetal bovine serum (FBS; Sigma, cat. no. F4135-100 mL). Plates were mixed by shaking then incubated at 35° C. overnight (16-20 h).

[7] = system: Ec AR0349 (mcr-1, COL^R); assay type: cell-based, Escherichia coli; settings: media CA-MHB
Method: as §3

[8] = system: Pa 27853; assay type: cell-based, Pseudomonas aeruginosa
Method: as §2

[9] = system: Pa LES431; assay type: cell-based, Pseudomonas aeruginosa
Method: as §2

[10] = system: Pa PAO1; assay type: cell-based, Pseudomonas aeruginosa
Method: as §2

[11] = system: Kp 6951 (COL^R); assay type: cell-based, Klebsiella pneumoniae
Method: as §2

[12] = system: Kp 10031; assay type: cell-based, Klebsiella pneumoniae
Method: as §2

[13] = system: Kp 43816; assay type: cell-based, Klebsiella pneumoniae
Method: as §2

[14] = system: Ab 19606 (COLhet^R); assay type: cell-based, Acinetobacter baumannii; settings: media CA-MHB
Method: as §3

Question: Which “% LPS neutralization of TM” value [1] does the source give for `C#CCOCCOCCOCCOCCC(=O)N[C@@H](CCCC)C(=O)N[C@@H](CCN)C(=O)N[C@H](C(=O)N[C@@H](CCN)C(=O)N[C@H]1CCNC(=O)[C@H]([C@@H](C)O)NC(=O)[C@H](CCN)NC(=O)[C@H](CCN)NC(=O)[C@H](CC(C)C)NC(=O)[C@@H](Cc2ccccc2)NC(=O)[C@H](CCN)NC1=O)[C@H](O)CCCCC` [Int-94] ({Propargyl(OCH2CH2)4CO}-[Nle][Dab][X3][Dab][Dab][Dab][dF]L[Dab][Dab]T; lactam 5-C) here?
Answer: 79.3%

Question: `C#CCOCCOCCOCCOCCC(=O)N1C[C@@H](C(=O)N[C@@H](CCCC)C(=O)N[C@@H](CCN)C(=O)N[C@H](C(=O)NNC(=O)N[C@H]2CCNC(=O)[C@H]([C@@H](C)O)NC(=O)[C@H](CCN)NC(=O)[C@H](CCN)NC(=O)[C@H](CC(C)C)NC(=O)C(Cc3ccccc3)NC(=O)[C@H](CCN)NC2=O)[C@@H](C)O)[C@H](C(=O)N[C@@H](CCCC)C(=O)N[C@@H](CCN)C(=O)N[C@H](C(=O)NNC(=O)N[C@H]2CCNC(=O)C(C(C)O)NC(=O)[C@H](CCN)NC(=O)[C@H](CCN)NC(=O)[C@H](CC(C)C)NC(=O)[C@@H](Cc3ccccc3)NC(=O)[C@H](CCN)NC2=O)[C@@H](C)O)C1` (some centres unmarked) [Int-107] (I: [Nle][Dab]T[azaGly][Dab][Dab][dF]L[Dab][Dab][ξT] / II: [Nle][Dab]T[azaGly][Dab][Dab][ξF]L[Dab][Dab]T; lactam I:5-I:C, II:5-II:C; linker I:N-II:N via X9) was tested. Which MIC ([2]; Ab AB5075, media CA-MHB) did it give?
Answer: 2 µg/mL (≈ 0.759 µM)

Question: What about the MIC ([3]; Ab 8990 (COL^R), media CA-MHB) of the same compound?
Answer: >128 µg/mL

Question: What about the MIC ([4]; Ec 25922 + FBS (50%, heat-inactivated), media CA-MHB) of the same compound?
Answer: 0.5 µg/mL

Question: What about the MIC ([4]; Ec 25922, media CA-MHB) of the same compound?
Answer: 2 µg/mL (≈ 0.759 µM)

Question: What about the MIC ([5]; Ec 2469, media CA-MHB) of the same compound?
Answer: 2 µg/mL (≈ 0.759 µM)

Question: And the MIC [6]?
Answer: 4 µg/mL (≈ 1.52 µM)

Question: And the MIC [7]?
Answer: 2 µg/mL (≈ 0.759 µM)

Question: And the MIC ([8]; Pa 27853, media CA-MHB)?
Answer: 2 µg/mL (≈ 0.759 µM)

Question: And the MIC ([9]; Pa LES431 + FBS (50%, heat-inactivated), media CA-MHB)?
Answer: 8 µg/mL

Question: What about the MIC ([9]; Pa LES431, media CA-MHB) of the same compound?
Answer: 2 µg/mL (≈ 0.759 µM)

Question: And the MIC ([10]; Pa PAO1, media CA-MHB)?
Answer: 2 µg/mL (≈ 0.759 µM)

Question: What about the MIC ([11]; Kp 6951 (COL^R), media CA-MHB) of the same compound?
Answer: 16 µg/mL (≈ 6.07 µM)

Question: What about the MIC ([12]; Kp 10031, media CA-MHB) of the same compound?
Answer: 2 µg/mL (≈ 0.759 µM)

Question: What about the MIC ([13]; Kp 43816, media CA-MHB) of the same compound?
Answer: 2 µg/mL (≈ 0.759 µM)

Question: What about the MIC [14] of the same compound?
Answer: 2 µg/mL (≈ 0.759 µM)

Question: For `C#CCOCCOCCOCCOCCNC(=O)CN(CC(=O)N[C@@H](CCCC)C(=O)N[C@@H](CCN)C(=O)N[C@H](C(=O)NNC(=O)N[C@H]1CCNC(=O)[C@H]([C@@H](C)O)NC(=O)[C@H](CCN)NC(=O)[C@H](CCN)NC(=O)[C@H](CC(C)C)NC(=O)[C@@H](Cc2ccccc2)NC(=O)[C@H](CCN)NC1=O)[C@H](O)CCCCC)CC(=O)N[C@@H](CCCC)C(=O)N[C@@H](CCN)C(=O)N[C@H](C(=O)NNC(=O)N[C@H]1CCNC(=O)[C@H]([C@@H](C)O)NC(=O)[C@H](CCN)NC(=O)[C@H](CCN)NC(=O)[C@H](CC(C)C)NC(=O)[C@@H](Cc2ccccc2)NC(=O)[C@H](CCN)NC1=O)[C@H](O)CCCCC` [Int-111] (I: [Nle][Dab][X3][azaGly][Dab][Dab][dF]L[Dab][Dab]T / II: [Nle][Dab][X3][azaGly][Dab][Dab][dF]L[Dab][Dab]T; lactam I:5-I:C, II:5-II:C; linker I:N-II:N via X4), which MIC [2] is on record?
Answer: 4 µg/mL (≈ 1.45 µM)

Question: What about the MIC [3] of the same compound?
Answer: 32 µg/mL (≈ 11.6 µM)

Question: What about the MIC [4] of the same compound?
Answer: 4 µg/mL (≈ 1.45 µM)

Question: And the MIC [5]?
Answer: 4 µg/mL (≈ 1.45 µM)

Question: And the MIC [6]?
Answer: 4 µg/mL (≈ 1.45 µM)

Question: And the MIC [7]?
Answer: 4 µg/mL (≈ 1.45 µM)

Question: What about the MIC [8] of the same compound?
Answer: 4 µg/mL (≈ 1.45 µM)

Question: And the MIC [9]?
Answer: 4 µg/mL (≈ 1.45 µM)

Question: What about the MIC ([10]; PAO1) of the same compound?
Answer: 8 µg/mL (≈ 2.91 µM)

Question: What about the MIC [11] of the same compound?
Answer: 8 µg/mL (≈ 2.91 µM)

Question: What about the MIC [12] of the same compound?
Answer: 4 µg/mL (≈ 1.45 µM)

Question: And the MIC [13]?
Answer: 4 µg/mL (≈ 1.45 µM)

Question: What about the MIC [14] of the same compound?
Answer: 4 µg/mL (≈ 1.45 µM)
